{"source": "patent US20240299486A1", "about": "“ADDRESSING INJECTION SITE REACTIONS ASSOCIATED WITH THE ADMINISTRATION OF ELAMIPRETIDE” (STEALTH BIOTHERAPEUTICS INC., priority 2022, published 2024)", "key": {"healthy subjects": {"tested_on": "healthy subjects", "experiment": "Phase 1 crossover study: clinically assessed injection site reactions", "experimental": "• This Phase 1, open-label, 6-arm crossover study included 10 healthy subjects ≥18 and ≤65 years of age. • All subjects received 60 mg of SQ elamipretide to alternating quadrants of the abdomen on each of 6 occasions (FIG. 3), with or without the interventions listed in Table 2. • For each treatment arm, ISR clinical and self-assessments were performed pre-elamipretide administration and at 0.5, 1, 2, 4, 6, 12, 24, and 48 hours after each elamipretide dose. • Blood samples for plasma concentrations of elamipretide and its metabolites were also collected pre-dose and at 0.25, 0.5, 1, 2, 4, and 6 hours post-elamipretide dose. • Primary endpoints consisted of comparisons of the grading from the clinical assessments and the self-assessments of each ISR parameter following administration of elamipretide with each separate intervention versus that of elamipretide alone. • Secondary endpoints consisted of comparison of various pharmacokinetic (PK) parameters and adverse events following administration of elamipretide with each separate intervention versus that of elamipretide alone.\nAfter the screening period (up to 28 days) in this phase 1, open-label, 4-week, 6-part, crossover study, all eligible subjects received 60 mg (0.75 mL) of SC elamipretide to alternating quadrants of the abdomen on each of 6 occasions, with or without potential ISR interventions. The first treatment arm (Arm 1) commenced on Day 1 with administration of elamipretide only, followed by the remaining treatment arms (Arms 2-6) with the following potential mitigations: mometasone furoate, 0.1% ointment, applied once under a hydrocolloid occlusive dressing (DuoDERM Extra Thin) 7 days prior to elamipretide administration (Arm 2); ice application at the elamipretide injection site 5 minutes pre- and post-drug administration (Arm 3); tacrolimus 0.1% ointment applied 15 minutes pre-drug dosing (Arm 4); doxepin 5% cream applied 15 minutes pre-elamipretide administration (Arm 5); and diphenhydramine 50 mg orally taken 2 hours prior to administration (Arm 6). For each treatment arm, blood samples for plasma concentrations of elamipretide and its metabolites were collected pre-dose and at 0.25, 0.5, 1, 2, 4, and 6 hours post-elamipretide dose. Vital signs were recorded pre-dose and at 0.5 and 6 hours post-elamipretide administration. ISR clinical and self-assessments were performed pre-elamipretide administration and at 0.5, 1, 2, 4, 6, 12, 24, and 48 hours after each elamipretide dose. Injection sites were photographed at 0.5, 1, 2, 4, and 12 hours post-elamipretide dose.\nThe primary endpoints of this study were comprised of the following efficacy measures: clinical assessments and subject self-assessments. Specifically, the primary endpoints consisted of comparisons of the grading of each ISR parameter following administration of elamipretide with each separate intervention versus the grading of each ISR parameter following administration of elamipretide alone. For clinical assessments, the clinical staff used a standard procedure adapted from the Division of Aids Table for Grading the Severity of Adult and Pediatric Adverse Events to score pain, erythema, induration, and pruritus using a 4-point scale based on severity (0=None, 1=Mild, 2=Moderate, 3=Severe, 4=Potentially Life Threatening). The self-assessments were based on a questionnaire to determine how bothered the patient was following each injection of elamipretide and included the following parameters: pain, burning sensation, cold sensation, itching, redness, swelling, and bruising.\nAll statistical analyses were performed using SAS GRID Linux/SAS Studio (Version 9.4, or higher). PK parameters for elamipretide and its metabolites, M1 and M2, were summarized using descriptive statistics."}, "[1]": {"tested_on": "wild type and Mrgprb2 knockout mice", "experimental": "Adult mice up to 8 months of age were anesthetized with an intraperitoneal injection of ketamine/xylazine. Fifteen (15) minutes after induction of anesthesia, mice were injected intravenously with 50 μL of 12.5 mg/mL Evans Blue in saline. Five (5) minutes later, 5 μL of 0.5 mg/mL elamipretide (in saline) was administered by injection in one paw and saline was administered in the other paw. Fifteen (15) minutes later, mice were sacrificed by decapitation. Paw tissue was collected, dried for 24 hours at 50° C., and weighed. Evans Blue was extracted by a 24-hour incubation in formamide at 50° C., and the optical density (O.D.) was read at 600 nm (the maximum Evans Blue absorbance) and 740 nm (the minimum specific Evans Blue absorbance) using a spectrophotometer. The value at 740 nm, reflecting Evans Blue-independent O.D., was subtracted from the value at 600 nm to attain the final readout.\nInjection site reactions were characterized by local inflammation and edema. The standard assay in mice to monitor local skin inflammation is the Evans Blue assay. In conditions of local skin inflammation, blood vessels become more permeable and components of blood leak out into the local tissue. Evans Blue is a dye that binds to a protein called albumin in the blood and leaks out with the albumin in inflammatory conditions. In this assay, mice were injected intravenously with Evans Blue and the amount of Evans Blue leakage in a tissue was a readout of the extent of inflammation. […] This is preferable to other skin sites in mice, as they are extremely thin, compared to human skin, and injected fluids almost immediately leave the sites of injection."}, "rats": {"tested_on": "rats", "conditions": "subcutaneous administration, long term toxicology studies"}, "[2]": {"conditions": "60 mg SQ elamipretide with or without the intervention, across all timepoints, all participants, n = 80"}, "[3]": {"conditions": "SQ elamipretide, multiple-dose trials >8 days, n = 376"}}}
{"compound": "Cc1cc(O)cc(C)c1C[C@H](NC(=O)[C@H](N)CCCNC(=N)N)C(=O)N[C@@H](CCCCN)C(=O)N[C@@H](Cc1ccccc1)C(N)=O", "note": "(stereo in doubt) [Elamipretide, H-D-Arg-2′,6′Dmt-Lys-Phe-NH2]", "values": [{"measurement": "Clinically assessed Erythema or redness, (%) of Reported Reactions", "setting": "healthy subjects; [2]", "value": "(26.3) %"}, {"measurement": "Clinically assessed Erythema or redness, Number of Reported Reactions", "setting": "healthy subjects; [2]", "value": 21}, {"measurement": "Clinically assessed Induration or swelling, (%) of Reported Reactions", "setting": "healthy subjects; [2]", "value": "(20.0) %"}, {"measurement": "Clinically assessed Induration or swelling, Number of Reported Reactions", "setting": "healthy subjects; [2]", "value": 16}, {"measurement": "Clinically assessed Pain or tenderness, (%) of Reported Reactions", "setting": "healthy subjects; [2]", "value": "(11.3) %"}, {"measurement": "Clinically assessed Pain or tenderness, Number of Reported Reactions", "setting": "healthy subjects; [2]", "value": 9}, {"measurement": "Clinically assessed Pruritis, (%) of Reported Reactions", "setting": "healthy subjects; [2]", "value": "(17.5) %"}, {"measurement": "Clinically assessed Pruritis, Number of Reported Reactions", "setting": "healthy subjects; [2]", "value": 14}, {"measurement": "time post-dose after which bruising appeared to form", "setting": "healthy subjects; injection site photographs, in those affected", "value": "> 12", "unit": "h"}, {"measurement": "time post-dose at which ISRs captured on the photographs were resolving", "setting": "healthy subjects; injection site photographs, with the exception of bruising", "value": 4, "unit": "h"}, {"measurement": "reduction of Evans Blue accumulation in footpads in Mrgprb2 knockout mice", "setting": "[1]; 0.5 mg/mL elamipretide, knockout vs wild type", "value": 80, "unit": "%"}, {"measurement": "Evans Blue accumulation in footpads", "setting": "[1]; Mrgprb2 knockout mice, 0.5 mg/mL elamipretide", "value": "almost no Evans Blue accumulation"}, {"measurement": "Evans Blue labeling in footpads", "setting": "[1]; wild type mice, 5 μL of 0.5 mg/mL elamipretide injected in paw, vs saline", "value": "strong Evans Blue labeling"}, {"measurement": "Injection site bruising, (%) of Subjects", "setting": "subjects; [3]", "value": "(12.0) %"}, {"measurement": "Injection site bruising, Number of Subjects", "setting": "subjects; [3]", "value": 45}, {"measurement": "Injection site erythema, (%) of Subjects", "setting": "subjects; [3]", "value": "(47.3) %"}, {"measurement": "Injection site erythema, Number of Subjects", "setting": "subjects; [3]", "value": 178}, {"measurement": "Injection site haemorrhage, (%) of Subjects", "setting": "subjects; [3]", "value": "(5.9) %"}, {"measurement": "Injection site haemorrhage, Number of Subjects", "setting": "subjects; [3]", "value": 22}, {"measurement": "Injection site induration, (%) of Subjects", "setting": "subjects; [3]", "value": "(19.4) %"}, {"measurement": "Injection site induration, Number of Subjects", "setting": "subjects; [3]", "value": 73}, {"measurement": "Injection site mass, (%) of Subjects", "setting": "subjects; [3]", "value": "(5.6) %"}, {"measurement": "Injection site mass, Number of Subjects", "setting": "subjects; [3]", "value": 21}, {"measurement": "Injection site pain, (%) of Subjects", "setting": "subjects; [3]", "value": "(22.3) %"}, {"measurement": "Injection site pain, Number of Subjects", "setting": "subjects; [3]", "value": 84}, {"measurement": "Injection site pruritus, (%) of Subjects", "setting": "subjects; [3]", "value": "(44.7) %"}, {"measurement": "Injection site pruritus, Number of Subjects", "setting": "subjects; [3]", "value": 168}, {"measurement": "Injection site swelling, (%) of Subjects", "setting": "subjects; [3]", "value": "(13.8) %"}, {"measurement": "Injection site swelling, Number of Subjects", "setting": "subjects; [3]", "value": 52}, {"measurement": "Injection site urticaria, (%) of Subjects", "setting": "subjects; [3]", "value": "(12.5) %"}, {"measurement": "Injection site urticaria, Number of Subjects", "setting": "subjects; [3]", "value": 47}, {"measurement": "injection site reactions (ISRs) reported, % of subjects", "setting": "subjects; subjects receiving SQ elamipretide through clinical trials", "value": 84.4, "unit": "%"}, {"measurement": "injection site reactions", "setting": "rats", "value": "some being severe at the higher dose levels"}]}
